Assay: Stability of gentamicin in 0.25M HCl under autoclave conditions
Format: physicochemical
Conditions: earlier studies

Substance: gentamicin
- loss of gentamicin detection: No significant loss

From US10471177B2, “Surface modified biological materials” (Orthobond Corporation, priority 2011, dated 2019)
